Like-named read-outs stand apart in the source and are kept apart here.
Legend:
E. coli [1] = experiment: Checkerboard assay (MIC in combination, FIC index); type: cell-based, Escherichia coli; parameters: MIC of colistin: unit not given here; conditions: for MIC of colistin: colistin-resistant E. coli FORC81
Method: LNT113 was vertically diluted 2-fold and the antibiotic was serially diluted horizontally in a 96-well plate. Bacterium at a concentration of 10^6 CFU/ml were added to each well in a CAA medium. […] The fractional inhibitory concentration (FIC) for the LNT113 or antibiotic was calculated by dividing the MIC of two drugs by combining it with the MIC of each drug alone. […] The FICI was considered as a synergistic effect ≤0.5, an additive >0.5 ˜≤1, an independent effect (indifference)>1.0 ˜≤2, and an antagonistic effect (antagonism) >2.

E. coli [2] = conditions: cited from earlier work
E. coli [3] = experiment: Antibacterial activity analysis (colony count after 2 hours in buffer); type: cell-based, Escherichia coli; conditions: 2 μM
Method: (§1) The antibacterial activity of the purified protein was tested for E. coli and various K. pneumoniae strains. The bacterium were grown to an exponential phase (OD600=0.5) and harvested by centrifugation at 12,000×g for 3 minutes. Then, the pellets were washed with reaction buffer solution (20 mM Tris-HCl, pH 7.5) and diluted to about 10^6 cells/ml in the buffer solution. Then, 100 μl bacterial suspension was mixed with the purified endolysin of 100 μl in the reaction buffer solution and incubated at 37° C. for 2 hours. Finally, the mixture was diluted with PBS and loaded on an LB plate. After culturing at 37° C. overnight, the bacterial colonies were counted. All the analysis was performed in triplicate.
(§2) The same reaction was performed for the selected subject bacterium in 20 mM HEPES-NaOH, 150 mM NaCl [pH 7.4], and the unique antibacterial activity of Tris and dependence of endolysin for turgor pressure were excluded (FIG. 10a and FIG. 10b). […] The bacterial cells grown geometrically were cultured with 2 μM endolysin in low tonicity buffers (20 mM Tris-HCl, pH 7.5 or 20 mM HEPES, pH 7.5) or high tonicity buffers (buffer solution comprising 150 mM NaCl) at 37° C. for 2 hours. The cells treated with storage buffer solution (20 mM Tris-HCl, pH 7.5, 150 mM NaCl buffer solution (pH 7.5)) were used as a negative control group. The dotted line represents the detection limit (1 Log CFU/ml).
For this, endolysin EC340 at a concentration of 2 μM and each test bacterium were added to reaction buffer (20 mM Tris-Cl, pH 7.5) so that the final concentration was to be 200 μl, and were left at 37° C. for 2 hours. After 2 hours, the number of colonies of Acinetobacter baumannii, Pseudomonas aeruginosa and Escherichia coli was confirmed, and the result was shown in FIG. 3.

K. pneumoniae = experiment: as above; type: cell-based, Klebsiella pneumoniae; conditions: 2 μM
Method: as §1, §2

[4] = antibiotic combined with LNT113, E. coli ATCC 8739
[5] = antibiotic combined with LNT113, E. coli ATCC 51739
[6] = antibiotic combined with LNT113, E. coli CCARM 1A746
[7] = antibiotic combined with LNT113, E. coli FORC81
[8] = antibiotic combined with LNT113, E. coli UPEC 3150
[9] = antibiotic combined with LNT113, E. coli strains overall

For C[C@@H](O)[C@H]1C(=O)N2C(C(=O)O)=C(S[C@@H]3CN[C@H](C(=O)N(C)C)C3)[C@H](C)[C@H]12 [Meropenem], the “Fractional inhibitory concentration index (FICI) of LNT113 using various antibiotics” value (E. coli [1]; [4]) was 0.63, the “Fractional inhibitory concentration index (FICI) of LNT113 using various antibiotics” value (E. coli [1]; [5]) was 0.75 and the “Fractional inhibitory concentration index (FICI) of LNT113 using various antibiotics” value (E. coli [1]; [6]) was 1. For the same molecule, the “Fractional inhibitory concentration index (FICI) of LNT113 using various antibiotics” value (E. coli [1]; [7]) was 2, the “Fractional inhibitory concentration index (FICI) of LNT113 using various antibiotics” value (E. coli [1]; [8]) was 1 and the “combination effect with LNT113, in words” value (E. coli [1]; [9]) was “slight additive effect”.

For CCn1cc(C(=O)O)c(=O)c2cc(F)c(N3CCNCC3)cc21 [Norfloxacin], the MIC of antibiotics (E. coli [2]; E. coli CCARM 1A746) is given as at least 128 µg/mL and the MIC of antibiotics (E. coli [2]; E. coli CCARM 1B684) is given as 32 µg/mL.

For [H]/N=C(/N)N[C@H]1[C@H](O)[C@@H](O)[C@H](O[C@@H]2O[C@@H](C)[C@](O)(C=O)[C@H]2O[C@@H]2O[C@@H](CO)[C@H](O)[C@@H](O)[C@@H]2NC)[C@@H](N/C(N)=N\[H])[C@@H]1O [Streptomycin], the MIC of antibiotics (E. coli [2]; E. coli CCARM 1A746) is listed as at least 128 µg/mL and the MIC of antibiotics (E. coli [2]; E. coli CCARM 1B684) is listed as at least 128 µg/mL.

In the case of CN(C)c1cc(NC(=O)CNC(C)(C)C)c(O)c2c1C[C@H]1C[C@H]3[C@H](N(C)C)C(O)=C(C(N)=O)C(=O)[C@@]3(O)C(O)=C1C2=O [Tigecycline], the “Fractional inhibitory concentration index (FICI) of LNT113 using various antibiotics” value (E. coli [1]; [4]) is reported as 2, the “Fractional inhibitory concentration index (FICI) of LNT113 using various antibiotics” value (E. coli [1]; [5]) is reported as 0.63 and the “Fractional inhibitory concentration index (FICI) of LNT113 using various antibiotics” value (E. coli [1]; [6]) is reported as 2. The “Fractional inhibitory concentration index (FICI) of LNT113 using various antibiotics” value (E. coli [1]; [7]) was 2 and the “Fractional inhibitory concentration index (FICI) of LNT113 using various antibiotics” value (E. coli [1]; [8]) was 0.63.

For Colistin, the “decrease of bacterial cells” value (E. coli [3]; colistin-resistant E. coli FORC81, 2 hours) was 1.2 log, the “strains in which the synergistic effect with LNT113 was observed” value (E. coli [1]; 5 different E. coli strains) was 4 strains among 5 strains and the “MIC of endolysin combined with colistin: Colistin” value (shortened to “MIC … with colistin: Colistin”) (E. coli [1]; E. coli ATCC8738, EC340 0) was 2 µg/mL. The “MIC … with colistin: Colistin” value (E. coli [1]; E. coli ATCC8738, EC340 16) was 0.125 µg/mL, the “MIC … with colistin: Colistin” value (E. coli [1]; E. coli ATCC8738, EC340 32) was 0.0625 µg/mL and the “MIC … with colistin: Colistin” value (E. coli [1]; E. coli ATCC8738, EC340 <2) was 0.25 µg/mL. For the same molecule, the “MIC … with colistin: Colistin” value (E. coli [1]; E. coli ATCC8738, mtEC340 0) was 2 µg/mL, the “MIC … with colistin: Colistin” value (E. coli [1]; E. coli ATCC8738, mtEC340 16) was 0.125 µg/mL and the “MIC … with colistin: Colistin” value (E. coli [1]; E. coli ATCC8738, mtEC340 32) was 0.125 µg/mL. The “MIC … with colistin: Colistin” value (E. coli [1]; E. coli ATCC8738, mtEC340 <2) was 0.25 µg/mL, the “combination effect with LNT113 (FICI class)” value (E. coli [1]; E. coli ATCC 8739) was “synergistic effect (a synergistic effect ≤0.5)” and the “MIC … with colistin: Colistin” value (E. coli [1]; E. coli ATOCB739, LNT113 0) was 2 µg/mL. For the same molecule, the “MIC … with colistin: Colistin” value (E. coli [1]; E. coli ATOCB739, LNT113 1) was 1 µg/mL, the “MIC … with colistin: Colistin” value (E. coli [1]; E. coli ATOCB739, LNT113 2) was 0.5 µg/mL and the “MIC … with colistin: Colistin” value (E. coli [1]; E. coli ATOCB739, LNT113 4) was 0.0625 µg/mL. The “combination effect with LNT113 (FICI class)” value (E. coli [1]; E. coli FORC81) was “synergistic effect (a synergistic effect ≤0.5)”, the “MIC … with colistin: Colistin” value (E. coli [1]; E. coli FORC81, LNT113 0) was 16 µg/mL and the “MIC … with colistin: Colistin” value (E. coli [1]; E. coli FORC81, LNT113 2) was 4 µg/mL. For the same molecule, the “MIC … with colistin: Colistin” value (E. coli [1]; E. coli FORC81, LNT113 4) was 1 µg/mL, the “MIC … with colistin: Colistin” value (E. coli [1]; E. coli FORC81, LNT113 <0.25) was 8 µg/mL and the “combination effect with LNT113 (FICI class)” value (E. coli [1]; E. coli UPEC 3150) was “synergistic effect (a synergistic effect ≤0.5)”. For the same molecule, the “MIC … with colistin: Colistin” value (E. coli [1]; E. coli UPEC3150, LNT113 0) was 4 µg/mL, the “MIC … with colistin: Colistin” value (E. coli [1]; E. coli UPEC3150, LNT113 1) was 2 µg/mL and the “MIC … with colistin: Colistin” value (E. coli [1]; E. coli UPEC3150, LNT113 2) was 0.5 µg/mL. The “MIC … with colistin: Colistin” value (E. coli [1]; E. coli UPEC3150, LNT113 4) was 0.0625 µg/mL, the “MIC of colistin in presence of endolysin EC340 or mtEC340” value (E. coli [1]; Table 3) was “significantly reduced” and the “Fractional inhibitory concentration index (FICI) of LNT113 using various antibiotics” value (E. coli [1]; [4]) was 0.25. For the same molecule, the “Fractional inhibitory concentration index (FICI) of LNT113 using various antibiotics” value (E. coli [1]; [5]) was 0.5, the “Fractional inhibitory concentration index (FICI) of LNT113 using various antibiotics” value (E. coli [1]; [6]) was 0.63 and the “Fractional inhibitory concentration index (FICI) of LNT113 using various antibiotics” value (E. coli [1]; [7]) was 0.5. The “Fractional inhibitory concentration index (FICI) of LNT113 using various antibiotics” value (E. coli [1]; [8]) was 0.38, the “Fractional inhibitory concentration index (FICI) of LNT113 using various antibiotics” value (E. coli [1]; antibiotic combined with LNT113, E. coli UPEC 3150, listed as colistin) was 0.375 and the “combination effect with LNT113 (FICI class)” value (E. coli [1]; [9]) was “synergistic effect (a synergistic effect ≤0.5)”. For the same molecule, the MIC of colistin (E. coli [1]; colistin alone) was 16 and the MIC of colistin (E. coli [1]; in combination with LNT113 of 4 mg/ml) was 1.

B1: mtEC340: mutant EC340 with H39S, D43H, T45E, A73V, A81S, T101A and I113V (protein)
chain: VSRNISNNGIKFTAAFEGFRGTAYRATPNEKYLTIGYGSYGPHVEPGKTITPGQGLLLLNRDMAKAVAAVDAVAHHSLTQSQFDAVCDLVYNAGAGVIAAATGTGKALRSGDVATLRAKLALFINQNGKPLLGLRRRTAGRLALFDGKPWQEAEAIGRAVKG
modifications: synthetic_mtEC340
notes: mutant EC340 with H39S, D43H, T45E, A73V, A81S, T101A and I113V
With B1 the “antibacterial activity (number of bacterium)” value (E. coli [3]; E. coli ATCC8739, ATCC25922, CCARM1A746, CCARM1B684, 2 hours, Tris-HCl pH 7.5) was “more excellent antibacterial activity”, the “effect of adding NaCl on antibacterial activity” value (E. coli [3]; E. coli ATCC 8739, Tris or Hepes buffer with 150 mM NaCl) was “almost inactivated” and the “increase of antibacterial activity versus EC340” value (E. coli [3]; various E. coli strains, 2 hours) was “up to 1 log”. For the same molecule, the “MIC of endolysin combined with colistin: mtEC340” value (from here on “MIC … with colistin: mtEC340”) (E. coli [1]; E. coli ATCC8738, Colistin 0) was over 128 µg/mL, the “MIC … with colistin: mtEC340” value (E. coli [1]; E. coli ATCC8738, Colistin 0.125 (row with mtEC340 16)) was 16 µg/mL and the “MIC … with colistin: mtEC340” value (E. coli [1]; E. coli ATCC8738, Colistin 0.125 (row with mtEC340 32)) was 32 µg/mL. The “MIC … with colistin: mtEC340” value (E. coli [1]; E. coli ATCC8738, Colistin 0.25) was under 2 µg/mL, the “antibacterial activity (number of bacterium)” value (K. pneumoniae; K. pneumoniae ATCC700603, KCTC2208, CCARM10143, F85, 2 hours, Tris-HCl pH 7.5) was “more excellent antibacterial activity” and the “effect of adding NaCl on antibacterial activity” value (K. pneumoniae; K. pneumoniae KCTC 2208, Tris or Hepes buffer with 150 mM NaCl) was “almost inactivated”. For the same molecule, the “increase of antibacterial activity versus EC340” value (K. pneumoniae; various K. pneumoniae strains, 2 hours) was “up to 1 log”.
